Results on 32 compounds are retold here after patent US8058475B2, “Substituted cyclohexylmethyl compounds” (Gruenenthal GmbH, priority 2005, dated 2011).

The test has as its target human μ-opiate receptor (Homo sapiens, UniProt P35372). The test can be described thus: Affinity for the human μ-opiate receptor ([3H]-naloxone displacement, SPA, CHO-K1 membrane preparation). In kind it is binding. To be noted: for inhibition at 1 µM: read-out: μ-Opioid receptor, % inhibition [1 μM]; for Ki: read-out: μ-Opioid receptor, Ki.
Where [1] appears, read: 1 μM test substance, inhibition of specific [3H]-naloxone binding.

Read-outs that look alike come from different tables or passages of the source.

human μ-opiate receptor, sequence (P35372 whole entry): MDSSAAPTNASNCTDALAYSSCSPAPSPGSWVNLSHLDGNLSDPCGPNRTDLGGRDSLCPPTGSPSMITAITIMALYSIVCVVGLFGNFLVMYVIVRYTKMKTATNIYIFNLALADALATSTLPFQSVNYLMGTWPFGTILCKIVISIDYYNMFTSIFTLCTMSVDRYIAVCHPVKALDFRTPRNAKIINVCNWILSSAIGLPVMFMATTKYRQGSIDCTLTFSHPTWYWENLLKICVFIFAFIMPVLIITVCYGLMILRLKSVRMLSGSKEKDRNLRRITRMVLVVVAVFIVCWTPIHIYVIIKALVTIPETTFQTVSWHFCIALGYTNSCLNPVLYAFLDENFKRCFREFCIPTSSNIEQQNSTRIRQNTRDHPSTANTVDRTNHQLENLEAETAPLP

On to `COc1c(C(=O)NCC2CCC(C(c3cccc(F)c3)N(C)C)CC2)csc1Cl` (stereo not drawn) [compound 303, 5-chloro-4-methoxy-thiophene-3-carboxylic acid {4-[dimethylamino-(3-fluoro-phenyl)-methyl]-cyclohexylmethyl}-amide], for which the inhibition – broadly, the share of the control response that was lost under treatment – at 1 µM was 99% and the Ki (in general, a measure of affinity in units of concentration, obtained from inhibition or displacement) is 19 nM.

Turning to `CN(C)C(c1ccc(Cl)cc1)C1CCC(O)(c2ccc(F)cc2)CC1` (stereo not drawn) [compound 162, 4-[(4-chloro-phenyl)-dimethylamino-methyl]-1-(4-fluoro-phenyl)-cyclohexanol], the inhibition at 1 µM under setting [1] turned out to be 59%.

Turning to `CN(C)C(c1cccs1)C1CCC(NC(=O)c2cccnc2Sc2ccc(Cl)cc2)CC1` (stereo not drawn) [compound 218, 2-(4-chloro-phenylsulfanyl)-N-[4-(dimethylamino-thiophen-2-yl-methyl)-cyclohexyl]-nicotinamide], the inhibition at 1 µM came to 89%.

As for `Cc1ccccc1C(=O)NCCC1CCC(C(c2ccccc2)N(C)C)CC1` (single isomer, unassigned) [compound 418, N-{2-[4-(dimethylamino-phenyl-methyl)-cyclohexyl]-ethyl}-2-methyl-benzamide], the Ki was determined as 43 nM. Where the note is “1 µM”, the “μ-Opioid receptor, % inhibition [1 μM]” value was 92%.

As for `CCC(C)C(=O)NCC1CCC(C(c2cccc(F)c2)N(C)C)CC1` (single isomer, unassigned) [compound 342, N-{4-[dimethylamino-(3-fluoro-phenyl)-methyl]-cyclohexylmethyl}-2-methyl-butyramide], the inhibition at 1 µM was found to be 90% and the Ki is 28 nM.

As for `CCCc1ccc(C(=O)NC2CCC(C(c3cccs3)N(C)C)CC2)cc1` (stereo not drawn) [compound 185, N-[4-(dimethylamino-thiophen-2-yl-methyl)-cyclohexyl]-4-propyl-benzamide], the inhibition at 1 µM was 100% and the inhibition constant (Ki) came out at 37 nM.

As to `CN(C)C(c1cccc(F)c1)C1CCC(CNC(=O)c2cc(Cl)cc(Cl)c2)CC1` (stereo not drawn) [compound 371, 3,5-dichloro-N-{4-[dimethylamino-(3-fluoro-phenyl)-methyl]-cyclohexylmethyl}-benzamide], the inhibition at 1 µM was 84% and the Ki worked out at 130 nM.

In the case of `CN(C)C(c1ccccc1)C1CCC(NC(=O)c2cccs2)CC1` (single isomer, unassigned) [compound 249, thiophene-2-carboxylic acid [4-(dimethylamino-phenyl-methyl)-cyclohexyl]-amide], the Ki is 64 nM. For the same compound, the “μ-Opioid receptor, % inhibition [1 μM]” value (1 µM) was 81%.

As to `CN(C)C(c1ccccc1)C1CCC(CCNC(=O)c2c(F)c(F)c(F)c(F)c2F)CC1` (stereo not drawn) [compound 460, N-{2-[4-(dimethylamino-phenyl-methyl)-cyclohexyl]-ethyl}-2,3,4,5,6-pentafluoro-benzamide], the inhibition at 1 µM is 97% and the Ki came to 9.5 nM.

As to `CN(C)C(c1ccccc1)C1CCC(CCNC(=O)c2csc(-c3ccc4c(c3)CCO4)n2)CC1` (stereo not drawn) [compound 468, 2-(2,3-dihydro-benzofuran-5-yl)-thiazole-4-carboxylic acid {2-[4-(dimethylamino-phenyl-methyl)-cyclohexyl]-ethyl}-amide], the inhibition at 1 µM is 83% and the inhibitory constant (Ki) came out at 160 nM.

`CCCCCCC1(O)CCC(C(c2ccc(Cl)cc2)N(C)C)CC1` (stereo not drawn) [compound 168, 4-[(4-chloro-phenyl)-dimethylamino-methyl]-1-hexyl-cyclohexanol]: the inhibition at 1 µM under setting [1] came to 58%.

Turning to `CN(C)C(c1ccccc1)C1CCC(NC(=O)c2csc(-c3ccccc3)n2)CC1` (stereo not drawn) [compound 237, 2-phenyl-thiazole-4-carboxylic acid [4-(dimethylamino-phenyl-methyl)-cyclohexyl]-amide], the inhibition at 1 µM was found to be 83% and the Ki stood at 48 nM.

For `Cc1cc(C(=O)NCC2CCC(C(c3cccs3)N(C)C)CC2)n(C(C)(C)C)n1` (stereo not drawn) [compound 366, 2-tert-butyl-5-methyl-2H-pyrazole-3-carboxylic acid [4-(dimethylamino-thiophen-2-yl-methyl)-cyclohexylmethyl]-amide], the inhibition at 1 µM worked out at 85% and the Ki was found to be 56 nM.

In the case of `CSc1ncccc1C(=O)NCC1CCC(C(c2ccc(Cl)cc2)N(C)C)CC1` (stereo not drawn) [compound 315, N-{4-[(4-chloro-phenyl)-dimethylamino-methyl]-cyclohexylmethyl}-2-methyl-sulfanyl-nicotinamide], the “μ-Opioid receptor, % inhibition [1 μM]” value was 97% and the Ki is 160 nM.

As for `CN(C)C(c1ccccc1)C1CCC(CNC(=O)c2cc([N+](=O)[O-])cc([N+](=O)[O-])c2)CC1` (stereo not drawn) [compound 392, N-[4-(dimethylamino-phenyl-methyl)-cyclohexylmethyl]-3,5-dinitro-benzamide], the inhibition at 1 µM turned out to be 80%. Also, the Ki (acylated amines (Table 20)) is 180 nM.

As for `CN(C)C(c1cccs1)C1CCC(CNC(=O)c2c(F)cccc2F)CC1` (stereo not drawn) [compound 313, N-[4-(dimethylamino-thiophen-2-yl-methyl)-cyclohexylmethyl]-2,6-difluoro-benzamide], the inhibition at 1 µM turned out to be 97% and the inhibitory constant (Ki) came to 35 nM.

As for `COc1ccccc1C(=O)NCC1CCC(C(c2cccc(F)c2)N(C)C)CC1` (stereo not drawn) [compound 368, N-{4-[dimethylamino-(3-fluoro-phenyl)-methyl]-cyclohexylmethyl}-2-methoxy-benzamide], the inhibition at 1 µM is 84% and the Ki is 34 nM.

In the case of `CN(C)C(c1ccccc1)C1CCC(CNC(=O)c2cccnc2Cl)CC1` (stereo not drawn) [compound 355, 2-chloro-N-[4-(dimethylamino-phenyl-methyl)-cyclohexylmethyl]-nicotinamide], the inhibition at 1 µM came out at 86% and the Ki amounted to 120 nM.

For `CCCCCC1(O)CCC(C(c2ccc(Cl)cc2)N(C)C)CC1` (stereo not drawn) [compound 170, 4-[(4-chloro-phenyl)-dimethylamino-methyl]-1-pentyl-cyclohexanol], the “μ-Opioid receptor, % inhibition [1 μM]” value (1 μM test substance, inhibition of specific [3H]-naloxone binding, 1 µM) is listed as 63%.

On to `CN(C)C(c1ccc(Cl)cc1)C1CCC(CNC(=O)C(c2ccccc2)c2ccccc2)CC1` (stereo not drawn) [compound 312, N-{4-[(4-chloro-phenyl)-dimethylamino-methyl]-cyclohexylmethyl}-2,2-diphenyl-acetamide], for which the inhibition at 1 µM was found to be 97% and the Ki was determined as 53 nM.

For `CC(Oc1ccccc1)C(=O)NC1CCC(C(c2cccc(F)c2)N(C)C)CC1` (single isomer, unassigned) [compound 222, N-{4-[dimethylamino-(3-fluoro-phenyl)-methyl]-cyclohexyl}-2-phenoxy-propionamide], the Ki was found to be 20 nM. Further, the “μ-Opioid receptor, % inhibition [1 μM]” value (1 µM) is 88%.

Consider `CC(Oc1ccccc1)C(=O)NCC1CCC(C(c2cccc(F)c2)N(C)C)CC1` (stereo not drawn) [compound 346, N-{4-[dimethylamino-(3-fluoro-phenyl)-methyl]-cyclohexylmethyl}-2-phenoxy-propionamide], for which the inhibition at 1 µM was found to be 90% and the Ki came to 65 nM.

For the compound `CN(C)C(c1ccc(Cl)cc1)C1CCC(CCNC(=O)c2ccc(F)cc2)CC1` (stereo not drawn) [compound 408, N-(2-{4-[(4-chloro-phenyl)-dimethylamino-methyl]-cyclohexyl}-ethyl)-4-fluoro-benzamide], the inhibition at 1 µM is 82% and the Ki amounted to 12 nM.

On to `CC(=O)N(CCc1c[nH]c2ccccc12)C1CCC(C(c2ccccc2)N(C)C)CC1` (stereo not drawn) [compound 182, N-(2-(1H-indol-3-yl)ethyl)-N-(4-((dimethylamino)(phenyl)methyl)cyclohexyl)-acetamide], for which the inhibition at 1 µM amounted to 95% and the Ki came to 2.1 nM.

Regarding `CN(C)C(c1ccccc1)C1CCC(CNC(=O)c2cccs2)CC1` (stereo not drawn) [compound 328, thiophene-2-carboxylic acid [4-(dimethylamino-phenyl-methyl)-cyclohexyl-methyl]-amide], the inhibition at 1 µM came out at 94% and the Ki is 16 nM.

With `CN(C)C(c1ccccc1)C1CCC(NC(=O)c2cc(C(F)(F)F)ccc2F)CC1` (stereo not drawn) [compound 205, N-[4-(dimethylamino-phenyl-methyl)-cyclohexyl]-2-fluoro-5-trifluoromethyl-benzamide], the inhibition at 1 µM worked out at 94% and the inhibition constant Ki was determined as 22 nM.

Regarding `Cc1ccccc1C(=O)NCCC1CCC(C(c2cccc(F)c2)N(C)C)CC1` (stereo not drawn) [compound 420, N-(2-{4-[dimethylamino-(3-fluoro-phenyl)-methyl]-cyclohexyl}-ethyl)-2-methyl-benzamide], the inhibition at 1 µM was 94% and the inhibition constant Ki was 16 nM.

Turning to `COc1ccc(C(=O)NCCC2CCC(C(c3ccccc3)N(C)C)CC2)c(OC)c1` (stereo not drawn) [compound 478, N-{2-[4-(dimethylamino-phenyl-methyl)-cyclohexyl]-ethyl}-2,4-dimethoxy-benzamide], the inhibition at 1 µM was found to be 95% and the Ki was 27 nM.

For the compound `Cc1ccccc1C(=O)NCC1CCC(C(c2cccc(F)c2)N(C)C)CC1` (stereo not drawn) [compound 384, N-{4-[dimethylamino-(3-fluoro-phenyl)-methyl]-cyclohexylmethyl}-2-methyl-benzamide], the inhibition at 1 µM was 82% and the Ki was 38 nM.

With `CN(C)C(c1cccc(F)c1)C1CCC(NC(=O)c2ccc(-c3ccccn3)s2)CC1` (stereo not drawn) [compound 267, 5-pyridin-2-yl-thiophene-2-carboxylic acid {4-[dimethylamino-(3-fluoro-phenyl)-methyl]-cyclohexyl}-amide], the inhibition at 1 µM was 77% and the Ki stood at 150 nM.

Turning to `CN(C)C(c1ccc(Cl)cc1)C1CCC(CCNC(=O)c2ccccc2Br)CC1` (stereo not drawn) [compound 395, 2-bromo-N-(2-{4-[(4-chloro-phenyl)-dimethylamino-methyl]-cyclohexyl}-ethyl)-benzamide], the inhibition at 1 µM came to 81% and the Ki was 46 nM.

Turning to `Cc1nc(-c2ccccc2)sc1C(=O)NC1CCC(C(c2cccc(F)c2)N(C)C)CC1` (stereo not drawn) [compound 256, 4-methyl-2-phenyl-thiazole-5-carboxylic acid {4-[dimethylamino-(3-fluoro-phenyl)-methyl]-cyclohexyl}-amide], the inhibition at 1 µM amounted to 80% and the Ki came out at 80 nM.
